The results in this text go back to PubChem BioAssay AID504544 (Sanford-Burnham Center for Chemical Genomics, 2011).

In the experiment the test system is S. cerevisiae tim23-1 mutant growth, luminescence. The experiment can be described thus: tim23-1 yeast growth suppression potency – luminescence, uHTS hits, counter-screen for tim10-1 yeast inhibitor project, dose response (AID 504544). On the technique in general: Counterscreens check selectivity or assay interference.

pIC50: −log10 of the molar value. Active and inactive are the calls of the source. The rule behind the calls is not given here.

In the case of `COc1ccc(Cl)cc1NC(=O)CN(C)C(=O)C12CC3CC(CC(Cl)(C3)C1)C2`, the pIC50 (in general, the IC50 on a negative log10 scale, so that one unit is a factor of ten) is 4.62.
Still for that read-out and setting: the same measure for `O=C(OCn1ncc(Br)c(Br)c1=O)c1ccc(F)cc1`: 5.75; for `O=C(NC(=S)Nc1ccccc1N1CCCC1)c1ccc([N+](=O)[O-])cc1`: 4.71.
For `Cc1cc(/C=C\c2ccc3cc(N(C)C)ccc3[n+]2C)c(C)n1-c1ccccc1`, the pIC50 is 5.23.
Same read-out and setting: to `CCCCNC(=S)Nc1ccc(C(F)(F)F)cc1` belongs 4.92; to `CCOc1ccccc1N1C(=O)CC(Sc2n[nH]c(-c3ccccc3)n2)C1=O` (stereo not drawn), 5.39.
`Fc1ccc(CNC(=S)Nc2cccc(C(F)(F)F)c2)cc1`: the negative logarithm of the IC50 (pIC50) was 4.91.
With `Nc1ccccc1C(=O)/C=C/c1ccc2c(c1)OCO2`, the pIC50 was 4.72.
As to `CCCOc1ccccc1NC(=O)/C=C/C(N)=O`, the pIC50 was 5.63.
On the same count and under the same terms, the same measure for `COc1ccc(/C(C)=N/NC(=S)NCCc2ccccc2)cc1`: 4.71; for `CCCCCCC(=O)N(O)C1CC(=O)N(c2ccc(C)cc2)C1=O` (stereo not drawn): 5.16.
Still for that read-out and setting: the same measure for `N=C(N)c1ccc(/C=C/c2ccc(C(=N)N)cc2O)cc1`: 5.19.
Still for that read-out and setting: to `COc1ccc(Br)cc1[C@H]1[C@@H]2C=CCC[C@@]2(C)C(=O)N1Cc1ccccc1` belongs 4.84.
As to `N/C(=N\OC(=O)CCCc1ccccc1)c1ccccc1Cl`, the pIC50 was 4.85.
The same measure, in the same setting: the same measure for `COc1ccc(C(=O)Nc2ccc(-n3nncc3C(C)(C)C)cc2)cc1`: 5.05.
On the same count and under the same terms, the same measure for `N/C(=N\OC(=O)CCC1CCCC1)c1ccccc1`: 4.53; for `O=C1CS(=O)(=O)N(Cc2cccc(F)c2)c2ccc(Br)cc21`: 4.90.
With `COC(=O)C(C(C)=O)C1=C/C(=N\S(=O)(=O)c2ccc(C)cc2)c2ccccc2C1=O` (stereo not drawn), the pIC50 is 5.01.
The same measure, in the same setting: to `CC(C)Nc1nnc(Sc2ccc(Cl)cc2[N+](=O)[O-])s1` belongs 5.58; to `Fc1c(F)c(C(F)(F)F)c(F)c(F)c1N/N=C\c1cccs1`, 5.13.
Still for that read-out and setting: to `CC(C)c1nnc(NC(=O)CCS(=O)(=O)c2nc(-c3cccs3)cc(C(F)(F)F)n2)s1` belongs 5.07.
In the case of `Cc1ccccc1OCC(=O)Nc1ccc(S(=O)(=O)N2CCCC2)cc1`, the pIC50 is 5.10.
The same measure, in the same setting: to `Nc1nc(-c2ccc(Br)cc2)cs1` belongs 4.75; to `COc1cc(C(=O)Nc2ccc(Cl)c(C(F)(F)F)c2)cc(OC)c1OC`, 4.48; to `CC[C@@H]1CC=C[C@H]2[C@H]1C(=O)N(Cc1ccccc1)[C@H]2c1ccoc1`, 5.13.
Still for that read-out and setting: the same measure for `CCCCNC(=S)N=Nc1c(O)[nH]c2ccccc12`: 5.31; for `O=C(NNC(=S)Nc1ccc(Cl)cc1)c1ccccc1OC(F)F`: 5.06.
Still for that read-out and setting: the same measure for `Cc1ccccc1/C=C/C(=O)c1ccc([N+](=O)[O-])o1`: 5.82.
As to `N/C(=N\OC(=O)c1ccc(Cl)cc1)c1ccc(Cl)cc1`, the IC50 – broadly, the midpoint of a concentration-inhibition curve – is > 100 µM (inactive).
Regarding `CCCOc1ccc(CN(CCC#N)C(=S)NC(=O)c2ccccc2)cc1`, the pIC50 was 4.64.
On the same count and under the same terms, to `COc1ccc(C(=O)O/N=C(\N)c2ccccc2Cl)cc1OC` belongs 4.92; to `Cc1cccc(NC(=S)N/N=C2/CCCCc3ccccc32)c1`, 5.13; to `Clc1ccc(CNc2nc(CN3CCOCC3)nc3scc(-c4ccccc4)c23)cc1`, 4.94.
With `Cc1ccc(NC(=S)Nc2ccc(Cl)c(Cl)c2)c(OC(F)F)c1`, the negative-log IC50 (pIC50) is 4.84.
Turning to `CC1=C/C(=N\OS(=O)(=O)c2ccccc2)C(C)=CC1=O`, the pIC50 is more than 6.70.
As for `COc1ccc(/C(N)=N/OC(=O)c2ccc3c(c2)OCO3)cc1`, the pIC50 is 5.12.
Same read-out and setting: the same measure for `COc1cc(N=c2ssnc2Cl)c(OC)cc1Cl`: 5.42.
The same measure, in the same setting: the same measure for `C/C(=N\NC(=S)NCc1ccccc1)c1ccc(Cl)s1`: 4.76; for `Cn1c(/C=C/c2ccc([N+](=O)[O-])o2)nc2ccccc2c1=O`: 5.20.
Turning to `COc1ccc(NC2CCN(C3CC(=O)N(c4ccc(F)c(Cl)c4)C3=O)CC2)cc1` (stereo not drawn), the negative-log IC50 (pIC50) was 5.25.
Still for that read-out and setting: the same measure for `C=CC(=O)Oc1ccc(N2Cc3ccccc3C2=O)cc1`: 5.48; for `CCOc1ccccc1NC(=O)/C=C/C(N)=O`: 5.13.
Still for that read-out and setting: to `O=C(Nc1cccc(N2C(=O)C=CC2=O)c1)c1cccs1` belongs 5.60; to `NNc1nc(-c2ccccc2)c2cc(Br)ccc2n1`, 4.66.
Still for that read-out and setting: to `Cc1ccc(F)c([C@H]2C3C=CCC(c4ccccc4)C3C(=O)N2Cc2ccccc2)c1` (stereo partly drawn) belongs 4.83; to `CC1(CC(=O)N/N=C/c2ccc(OCc3ccc(Cl)cc3Cl)cc2)OCCCO1`, 5.37; to `CCOC(=O)c1ccc(N2C(=O)C=CC2=O)cc1`, 6.32.
Take `N/C(=N\OC(=O)c1ccc(F)cc1)c1ccc(Br)cc1`: the pIC50 is 5.50.
The same measure, in the same setting: to `COc1ccc(C(=O)O/N=C(\N)c2ccc(Br)cc2)cc1` belongs 4.84.
Still for that read-out and setting: to `CCOC(=O)c1cc(-c2cccs2)nc2c1c(C)nn2-c1ccccn1` belongs 4.76.
Still for that read-out and setting: to `CC(=O)c1ccc(NC(=S)NC(C)c2ccc(Cl)cc2Cl)cc1` (stereo not drawn) belongs 4.86.
Regarding `COc1ccc2sc(N(CCCN(C)C)C(=O)c3ccc(S(=O)(=O)N4CCCc5ccccc54)cc3)nc2c1`, the pIC50 is 4.92.
For `Clc1ccccc1OCc1nnc(-c2ccccc2Br)o1`, the pIC50 was 4.48.
On the same count and under the same terms, to `Fc1ccccc1CNC(=S)Nc1cccc(C(F)(F)F)c1` belongs 4.93; to `CCOc1ccc(-n2cc(-c3ccccc3)c3c(=O)[nH]cnc32)cc1`, 4.86; to `COc1ccc(-n2cc(-c3ccccc3)c3c(=S)nc[nH]c32)cc1`, 4.42.
As to `N#C/C(=N/Nc1ccc(OC(F)(F)F)cc1)C(N)=S`, the negative-log IC50 (pIC50) is 5.88.
Same read-out and setting: the same measure for `CCOC(=O)c1c(CSc2ccc(C)cc2)n(C)c2cc(Br)c(O)c(CN(C)C)c12`: 4.70.
For the compound `CC(C)C(c1nnnn1C1CCCC1)N1CCCc2ccccc21` (stereo not drawn), the pIC50 was 4.86.
Regarding `O=C1CC(Sc2nnnn2-c2ccccc2)C(=O)N1c1cccc(Cl)c1` (stereo not drawn), the pIC50 is 5.53.
On the same count and under the same terms, to `O=c1c2ccccc2[se]n1-c1ccccc1` belongs 6.06.
Take `O=[N+]([O-])c1ccccc1N/N=C/c1c[nH]c2ccccc12`: the pIC50 was 4.80.
`Cc1ccc(/C(N)=N/OC(=O)c2ccc3c(c2)OCO3)cc1`: the pIC50 is 4.81.
Same read-out and setting: the same measure for `C[C@@H]1CC=C[C@H]2[C@H]1C(=O)N(Cc1ccccc1)[C@H]2c1ccc(-c2ccoc2)cc1F`: 4.89.
Same read-out and setting: to `Cc1ccc(/C(N)=N/OC(=O)C(C)c2ccc([N+](=O)[O-])cc2)cc1` (stereo not drawn) belongs 4.38.
As to `CN(CCCC(=O)O)c1ccc(N=Nc2ccc([N+](=O)[O-])cc2)cc1`, the pIC50 was 4.94.
Same read-out and setting: to `O=C(Nc1cccnc1)c1cn(-c2ccccc2)nc1-c1cccs1` belongs 4.55; to `O=C(c1cc(COc2ccc(F)cc2Cl)on1)N1CCN(c2cnccn2)CC1`, 5.26.
Take `COc1ccc(C(=O)O/N=C(\N)Cc2ccc(Cl)c(Cl)c2)cc1OC`: the pIC50 is 5.86.
As for `Cn1c(Cl)cnc1C1CC(=O)c2cc(Cl)ccc2O1` (stereo not drawn), the pIC50 is 5.35.
On the same count and under the same terms, the same measure for `Cc1ccc(NC2=C/C(=N\S(=O)(=O)c3cccs3)c3ccccc3C2=O)c(C)c1`: 4.92; for `Cc1cccc(NC(=O)c2ccc([N+](=O)[O-])s2)n1`: 5.81.
The same measure, in the same setting: the same measure for `N/C(Cc1ccc(Cl)cc1)=N\OC(=O)c1ccc2ccccc2c1`: 6.42.
